The target in assay [1] is T1, amylin receptor 1 ECD with calcitonin receptor D101E mutation (Homo sapiens, UniProt O60894+P30988, D101E).
T1 construct: pHLsec/hRAMP1.24–111-(GSA)3-hCTR.34–141.D101E-H6 (D-pJJ002); H6 (hexahistidine) (C); made in house; host or cells: HEK293 (transient transfection, secreted, N-glycosylated)
The assay can be described thus: FP saturation binding, D101E. Particulars: for Average fluorescence intensity change upon receptor ECD binding: % of a free probe intensity, Mean ± S.D., max receptor 3 μM (sCT), 1 μM (AC413). From the text:
(§1) pHLsec-based vectors were used to express wild-type and mutated amylin receptor 1 extracellular domains as secreted proteins to cell culture media. The plasmid DNA construct of the wild-type amylin receptor 1 extracellular domain, pHLsec/hRAMP1.24–111-(GSA)3-hCTR.34–141-H6 (H-pSL005) was previously described. The following DNA vector plasmids were made for this study: pHLsec/hRAMP1.24–111-(GSA)3-hCTR.34–141.D97A-H6 (D-pSL009), pHLsec/hRAMP1.24–111-(GSA)3-hCTR.34–141.D97E-H6 (D-pJS001), pHLsec/hRAMP1.24–111-(GSA)3-hCTR.34–141.D101A-H6 (D-pJJ003), pHLsec/hRAMP1.24–111-(GSA)3-hCTR.34–141.D101E-H6 (D-pJJ002), pHLsec/hRAMP1.24–111-(GSA)3-hCTR.34–141.E123A-H6 (D-pJJ004), pHLsec/hRAMP1.24–111-(GSA)3-hCTR.34–141.E123D-H6 (D-pJJ001), pHLsec/hRAMP1.24–111-(GSA)3-hCTR.34–141.N124A-H6 (D-pJS005), pHLsec/hRAMP1.24–111-(GSA)3-hCTR.34–141.N124D-H6 (D-pJS006), pHLsec/hRAMP1.24–111-(GSA)3-hCTR.34–141.N135A-H6 (D-pJW001), and pHLsec/hRAMP1.24–111-(GSA)3-hCTR.34–141.N135D-H6 (D-pJS002). The mutations were introduced to the calcitonin receptor extracellular domain by using DNA Assembly reaction. Coding sequences of the receptor expression vectors were confirmed with Sanger sequencing by Bionics (Seoul, Republic of Korea). DNA plasmid vectors were extracted and were purified from bacterial cells with NucleoBond® Extra Midi Plus kit (Macherey-Nagel, Germany). The purified DNA vectors were stored at −20 °C until their use for mammalian cell transfection.
The overall experimental procedure of reconstituting the functional amylin receptor 1 extracellular domain (ECD) as the fusion protein of RAMP1 ECD and the calcitonin receptor ECD was previously described. The wild-type and mutated amylin receptor 1 ECDs were expressed from HEK293 cells with transient transfection with polyethylenimine. […]
(§2) The overall procedure of the FP binding assay with a saturation binding format was previously described. […] FITC-labeled peptide probes were incubated for 1 h at room temperature with the purified receptor protein prior to fluorescence signal measurement. […]

The target of assay [2] is T2, amylin receptor 1 ECD with calcitonin receptor D97A mutation (Homo sapiens, UniProt O60894+P30988, D97A).
T2 construct: pHLsec/hRAMP1.24–111-(GSA)3-hCTR.34–141.D97A-H6 (D-pSL009); H6 (hexahistidine) (C); made in house; host or cells: HEK293 (transient transfection, secreted, N-glycosylated)
T2 sequence (O60894 24-111): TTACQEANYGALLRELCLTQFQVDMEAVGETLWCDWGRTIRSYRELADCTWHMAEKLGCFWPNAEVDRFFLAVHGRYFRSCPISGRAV
T2 sequence (P30988 34-141 D97A): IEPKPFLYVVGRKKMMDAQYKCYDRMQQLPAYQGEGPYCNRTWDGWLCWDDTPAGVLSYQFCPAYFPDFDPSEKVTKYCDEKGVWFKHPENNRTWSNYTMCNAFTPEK
In words: FP saturation binding, D97A. Particulars: for Average fluorescence intensity change upon receptor ECD binding: % of a free probe intensity, Mean ± S.D., max receptor 3 μM (sCT), 1 μM (AC413).
Text: as §1
(§3) The overall experimental procedure of reconstituting the functional amylin receptor 1 extracellular domain (ECD) as the fusion protein of RAMP1 ECD and the calcitonin receptor ECD was previously described. The wild-type and mutated amylin receptor 1 ECDs were expressed from HEK293 cells with transient transfection with polyethylenimine. The expressed receptor proteins were secreted to cell culture media for 4 days at 37 °C. The media were collected for the receptor protein purification. Initial dialysis was performed with the dialysis buffer (Tris 25 mM (pH 7.4), NaCl 150 mM, and imidazole 10 mM) overnight. […] Then, a size exclusion column chromatography (SEC) was performed with SEC column (Cytiva, HiLoad® 16/600 Superdex® 200 pg) and SEC buffer (Tris 50 mM (pH 7.4), NaCl 150 mM, and glycerol (v/v) 10%) as previously described. As the final step, the purified receptor proteins were dialyzed to storage buffer (HEPES 25 mM (pH 7.4), NaCl 150 mM, and glycerol (v/v) 50 %) and were stored at −60 °C until their use for the receptor–ligand binding assay. […]
as §2

The target in assay [3] is T3, amylin receptor 1 ECD with calcitonin receptor N124D mutation (Homo sapiens, UniProt O60894+P30988, N124D).
T3 construct: pHLsec/hRAMP1.24–111-(GSA)3-hCTR.34–141.N124D-H6 (D-pJS006); H6 (hexahistidine) (C); made in house; host or cells: HEK293 (transient transfection, secreted, N-glycosylated)
T3 sequence (O60894 24-111): as the sequence (O60894 24-111) above
T3 sequence (P30988 34-141 N124D): as the sequence (P30988 34-141 D97A) above, with A64D, N91D counted along it
The assay can be described thus: FP saturation binding, N124D. To be noted: for Average fluorescence intensity change upon receptor ECD binding: % of a free probe intensity, Mean ± S.D., max receptor 3 μM (sCT), 1 μM (AC413); for effect of mutation on binding affinity: compared with N124A, in words.
Text: as §1
The overall experimental procedure of reconstituting the functional amylin receptor 1 extracellular domain (ECD) as the fusion protein of RAMP1 ECD and the calcitonin receptor ECD was previously described. The wild-type and mutated amylin receptor 1 ECDs were expressed from HEK293 cells with transient transfection with polyethylenimine. The expressed receptor proteins were secreted to cell culture media for 4 days at 37 °C. The media were collected for the receptor protein purification. Initial dialysis was performed with the dialysis buffer (Tris 25 mM (pH 7.4), NaCl 150 mM, and imidazole 10 mM) overnight. […] Then, a size exclusion column chromatography (SEC) was performed with SEC column (Cytiva, HiLoad® 16/600 Superdex® 200 pg) and SEC buffer (Tris 50 mM (pH 7.4), NaCl 150 mM, and glycerol (v/v) 10%) as previously described. As the final step, the purified receptor proteins were dialyzed to storage buffer (HEPES 25 mM (pH 7.4), NaCl 150 mM, and glycerol (v/v) 50 %) and were stored at −60 °C until their use for the receptor–ligand binding assay. All purification procedures were performed at 4 °C.
Two peptide probes labeled with fluorescein isothiocyanate (FITC) were used for this study: FITC-labeled salmon calcitonin (sCT) fragment(22–32) and FITC-labeled AC413(6–25) with Y25P mutation. These peptide probes were custom-synthesized from Genscript (Piscataway, NJ, USA). These peptides were used as the probes for the receptor–ligand binding assay. These peptides were HPLC-purified with at least 85% purity by Genscript (Piscataway, NJ, USA). Mass spectrometry performed at Genscript confirmed the correct molecular mass of the synthesized peptides. The extinction coefficient of FITC (63,000 M^−1·cm^−1 at 495 nm, pH 7.0) was used to calculate the concentration of the peptides.
The overall procedure of the FP binding assay with a saturation binding format was previously described. A total of 10 nM FITC-labeled sCT(22–32) and 10 nM FITC-labeled AC413(6–25) with Y25P mutation were used for the receptor–ligand binding assay. For the saturation binding format, the non-linear regression curves were generated by using user-defined equations that were previously described for affinity calculation. FITC-labeled peptide probes were incubated for 1 h at room temperature with the purified receptor protein prior to fluorescence signal measurement. […]

Assay [4] addresses T4, amylin receptor 1 ECD with calcitonin receptor N135D mutation (Homo sapiens, UniProt O60894+P30988, N135D).
T4 construct: pHLsec/hRAMP1.24–111-(GSA)3-hCTR.34–141.N135D-H6 (D-pJS002); H6 (hexahistidine) (C); made in house; host or cells: HEK293 (transient transfection, secreted, N-glycosylated)
In words: FP saturation binding, N135D. Particulars: for Average fluorescence intensity change upon receptor ECD binding: % of a free probe intensity, Mean ± S.D., max receptor 3 μM (sCT), 1 μM (AC413); for effect of mutation on binding affinity: in words.
Text: as §1, §3, §2

The target of assay [5] is T5, amylin receptor 1 ECD with calcitonin receptor N135A mutation (Homo sapiens, UniProt O60894+P30988, N135A).
T5 construct: pHLsec/hRAMP1.24–111-(GSA)3-hCTR.34–141.N135A-H6 (D-pJW001); H6 (hexahistidine) (C); made in house; host or cells: HEK293 (transient transfection, secreted, N-glycosylated)
T5 sequence (O60894 24-111): as the sequence (O60894 24-111) above
T5 sequence (P30988 34-141 N135A): as the sequence (P30988 34-141 D97A) above, with A64D, N102A counted along it
The assay can be described thus: FP saturation binding, N135A. Particulars: for Average fluorescence intensity change upon receptor ECD binding: % of a free probe intensity, Mean ± S.D., max receptor 3 μM (sCT), 1 μM (AC413); for effect of mutation on binding affinity: in words.
Text: as §1, §3, §2

Where a SMILES comes first, the peptide text is derived from it. The star is where a group is joined. FITC = O=C1OC2(c3ccc(O)cc3Oc3cc(O)ccc32)c2ccc(NC(=S)*)cc21

T4 sequence (O60894 24-111): as the sequence (O60894 24-111) above
T4 sequence (P30988 34-141 N135D): as the sequence (P30988 34-141 D97A) above, with A64D, N102D counted along it
T1 sequence (O60894 24-111): as the sequence (O60894 24-111) above
T1 sequence (P30988 34-141 D101E): as the sequence (P30988 34-141 D97A) above, with A64D, D68E counted along it

As for `CC(C)C[C@H](NC(=O)[C@H](CCCNC(=N)N)NC(=O)[C@@H](NC(=O)[C@H](CC(C)C)NC(=O)[C@H](Cc1ccccc1)NC(=O)[C@H](CC(N)=O)NC(=O)[C@H](C)NC(=S)Nc1ccc2c(c1)C(=O)OC21c2ccc(O)cc2Oc2cc(O)ccc21)C(C)C)C(=O)N[C@@H](CCC(N)=O)C(=O)N[C@H](C(=O)N[C@@H](Cc1ccc(O)cc1)C(=O)N1CCC[C@H]1C(=O)N[C@@H](CCCNC(=N)N)C(=O)N[C@H](C(=O)N[C@@H](CC(N)=O)C(=O)N[C@H](C(=O)NCC(=O)N[C@@H](C)C(=O)N[C@@H](CC(N)=O)C(=O)N[C@H](C(=O)N1CCC[C@H]1C(N)=O)[C@@H](C)O)C(C)C)[C@@H](C)O)[C@@H](C)O` [FITC-AC413(6–25) Y25P] ({FITC}-ANFLVRLQTYPRTNVGANTP-NH2; C-terminus assumed), the “Average fluorescence intensity change upon receptor ECD binding” value is given as 99 ± 3% in assay [1]; 71 ± 4% in assay [2] (D97A); 88 ± 8% in assay [3]; 85 ± 15% in assay [4]; 87 ± 15% in assay [5]. The “effect of mutation on binding affinity” value in assay [2] (D97A, in words) is “not significantly changed”; in assay [3], “failed to restore the decreased binding affinity”; in assay [3] (listed as AC413 fragment), “failed to restore the decreased affinity”; in assay [4], “failed to recover the binding affinity”; in assay [5] it was “markedly decreased the binding affinity”.
On to `C[C@@H](O)[C@H](NC(=O)[C@H](CC(N)=O)NC(=O)[C@@H](NC(=O)[C@H](CCCNC(=N)N)NC(=O)[C@@H]1CCCN1C(=O)[C@H](Cc1ccc(O)cc1)NC(=S)Nc1ccc2c(c1)C(=O)OC21c2ccc(O)cc2Oc2cc(O)ccc21)[C@@H](C)O)C(=O)NCC(=O)N[C@@H](CO)C(=O)NCC(=O)N[C@H](C(=O)N1CCC[C@H]1C(N)=O)[C@@H](C)O` [FITC-sCT(22–32)] ({FITC}-YPRTNTGSGTP-NH2; C-terminus assumed), for which the “Average fluorescence intensity change upon receptor ECD binding” value worked out at 118 ± 13% in assay [1]; 75 ± 12% in assay [2] (D97A); 77 ± 5% in assay [3]; 99 ± 0.1% in assay [4]; 81 ± 10% in assay [5]. The “effect of mutation on binding affinity” value in assay [1] (in words) was “failed to recover the binding affinity”; in assay [3], “fully restored the decreased binding affinity”; in assay [3] (listed as salmon calcitonin fragment) it was “restored the decreased affinity”; in assay [4] it was “failed to recover the binding affinity”; in assay [5], “markedly decreased the binding affinity”. Besides, in assay [2] (D97A versus wild-type receptor ECD), the “decrease of binding affinity” value worked out at 6.8 fold.

(Values after PMC12292835, “Amylin Receptor 1 Mutagenesis Revealed a Potential Role of Calcitonin Serine 29 in Receptor Interaction” (Biomedicines, 2025).)
